Results taken from the supplement of paper PMC10307832.

Legend:
Assay in all cases: relative viability (nuclei count vs DMSO), 5 days (fraction); higher = more cells survive
[1] = compound: C=C(c1ccc(C(=O)O)cc1)c1cc2c(cc1C)C(C)(C)CCC2(C)C [Bexarotene] + Cc1nc(NC(=O)N2CCC[C@H]2C(N)=O)sc1-c1ccnc(C(C)(C)C(F)(F)F)c1 [Alpelisib] (partner 2 µM)
Outline: (§1)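 Dosing by pin tool came one day after lung cancer cell lines were seeded in 1536-well plates, using either one drug or a fixed anchor-drug dose plus five library-drug doses (not always all listed) in √10 steps. After 5 days, nuclei were counted on 4× images. Relative viability is treated-well nuclei count divided by vehicle-well nuclei count, and values are medians of duplicate plates.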

[2] = compound: C=C(c1ccc(C(=O)O)cc1)c1cc2c(cc1C)C(C)(C)CCC2(C)C [Bexarotene] + Nc1nc2[nH]cc(CCc3ccc(C(=O)N[C@@H](CCC(=O)O)C(=O)O)cc3)c2c(=O)[nH]1 [Pemetrexed] (partner 0.2 µM)
Outline: as §1

[3] = compound: C=C(c1ccc(C(=O)O)cc1)c1cc2c(cc1C)C(C)(C)CCC2(C)C [Bexarotene] + O=C(c1cc(Cc2n[nH]c(=O)c3ccccc23)ccc1F)N1CCN(C(=O)C2CC2)CC1 [Olaparib] (partner 8 µM)
Outline: as §1

[4] = compound: C=C(c1ccc(C(=O)O)cc1)c1cc2c(cc1C)C(C)(C)CCC2(C)C [Bexarotene] + COc1cc2c(Oc3ccc(NC(=O)C4(C(=O)Nc5ccc(F)cc5)CC4)cc3F)ccnc2cc1OCCCN1CCOCC1 [Foretinib] (partner 0.25 µM)
Outline: as §1

Cell Line | relative viability ([1]; first compound 0.08 µM) | relative viability ([1]; first compound 0.253 µM) | relative viability ([1]; first compound 0.8 µM) | relative viability ([1]; first compound 2.53 µM) | relative viability ([1]; first compound 8 µM) | relative viability ([2]; first compound 0.08 µM) | relative viability ([2]; first compound 0.253 µM) | relative viability ([2]; first compound 0.8 µM) | relative viability ([2]; first compound 2.53 µM) | relative viability ([2]; first compound 8 µM) | relative viability ([3]; first compound 0.08 µM) | relative viability ([3]; first compound 0.253 µM) | relative viability ([3]; first compound 0.8 µM) | relative viability ([3]; first compound 2.53 µM) | relative viability ([3]; first compound 8 µM) | relative viability ([4]; first compound 0.08 µM) | relative viability ([4]; first compound 0.253 µM) | relative viability ([4]; first compound 0.8 µM) | relative viability ([4]; first compound 2.53 µM) | relative viability ([4]; first compound 8 µM)
PC-14 | 1.02 | 1.06 | 0.9 | 0.957 | 0.921 | 0.127 | 0.144 | 0.145 | 0.145 | 0.16 | 0.268 | 0.349 | 0.243 | 0.213 | 0.214 | 1.12 | 1.08 | 0.973 | 1.01 | 0.934
HOP-62 | 1.35 | 1.4 | 1.03 | 1.12 | 0.917 | 0.332 | 0.297 | 0.336 | 0.314 | 0.361 | 0.452 | 0.711 | 0.56 | 0.43 | 0.371 | 1.35 | 1.28 | 1.23 | 1.14 | 1.08
NCI-H358 | 1.07 | 0.881 | 0.579 | 1.03 | 0.923 | 0.182 | 0.184 | 0.144 | 0.167 | 0.158 | 0.855 | 0.596 | 0.573 | 0.625 | 0.551 | 0.8 | 0.929 | 0.708 | 0.818 | 0.722
SK-MES-1 | 1.06 | 0.948 | 0.961 | 0.893 | 0.956 | 1.04 | 1.12 | 1.08 | 0.961 | 0.735 | 0.798 | 0.832 | 0.696 | 0.628 | 0.564 | 1.1 | 0.959 | 1.02 | 1.03 | 0.866
NCI-H1666 | 1 | 0.877 | 0.862 | 0.897 | 0.761 | 0.8 | 0.912 | 0.736 | 0.844 | 0.7 | 0.714 | 0.754 | 0.694 | 0.691 | 0.63 | 0.974 | 0.937 | 0.85 | 0.867 | 0.833
NCI-H1355 | 0.957 | 0.894 | 0.765 | 0.916 | 0.876 | 1.14 | 1.15 | 0.983 | 1.13 | 1.01 | 0.805 | 0.76 | 0.781 | 0.785 | 0.778 | 1 | 1.09 | 0.91 | 1.05 | 0.947
HCC-827 | 1.05 | 0.844 | 0.969 | 1.04 | 0.917 | 0.285 | 0.271 | 0.263 | 0.317 | 0.245 | 0.714 | 0.637 | 0.763 | 0.666 | 0.625 | 1.07 | 1.02 | 0.992 | 1.09 | 0.976
HARA | 0.705 | 0.714 | 0.456 | 0.52 | 0.597 | 0.292 | 0.31 | 0.217 | 0.248 | 0.244 | 0.752 | 0.838 | 0.925 | 0.731 | 0.715 | 0.759 | 0.472 | 0.85 | 0.941 | 0.701
HCC-366 | 0.529 | 0.408 | 0.411 | 0.489 | 0.463 | 0.203 | 0.14 | 0.2 | 0.141 | 0.17 | 0.346 | 0.494 | 0.381 | 0.388 | 0.369 | 0.94 | 0.989 | 0.962 | 0.969 | 0.834
NCI-H322M | 0.846 | 0.881 | 0.809 | 0.771 | 0.874 | 0.698 | 0.611 | 0.574 | 0.626 | 0.695 | 0.771 | 0.826 | 0.788 | 0.834 | 0.871 | 1.06 | 1.14 | 0.946 | 0.977 | 0.978
NCI-H2347 | 1.05 | 1.03 | 0.748 | 1.01 | 1.11 | 0.484 | 0.424 | 0.399 | 0.445 | 0.462 | 0.583 | 0.614 | 0.552 | 0.42 | 0.647 | 0.878 | 0.783 | 0.703 | 0.882 | 1.09
NCI-H1975 | 0.705 | 0.783 | 0.665 | 0.669 | 0.836 | 0.327 | 0.331 | 0.305 | 0.334 | 0.323 | 1.03 | 0.906 | 0.783 | 0.851 | 0.836 | 1.11 | 0.983 | 1.12 | 1.04 | 1.05
UMC-11 | 0.971 | 1.02 | 0.954 | 1.04 | 0.955 | 0.77 | 0.764 | 0.786 | 0.77 | 0.803 | 0.387 | 0.425 | 0.525 | 0.353 | 0.37 | 1.1 | 1.01 | 0.946 | 1.07 | 0.956
A-427 | 1.08 | 1.02 | 0.89 | 0.89 | 0.926 | 0.938 | 0.872 | 0.794 | 0.773 | 0.904 | 0.716 | 0.781 | 0.654 | 0.743 | 0.728 | 1.14 | 0.932 | 0.941 | 1.05 | 0.868
LCLC-97TM1 | 0.333 | 0.285 | 0.274 | 0.264 | 0.263 | 0.193 | 0.159 | 0.172 | 0.202 | 0.168 | 0.383 | 0.421 | 0.411 | 0.31 | 0.269 | 0.891 | 1 | 0.887 | 0.933 | 0.969
HCC-15 | 0.91 | 0.849 | 0.845 | 0.816 | 0.788 | 0.218 | 0.229 | 0.214 | 0.184 | 0.207 | 0.666 | 0.703 | 0.721 | 0.654 | 0.689 | 1.09 | 1.07 | 1.05 | 1.05 | 0.996
NCI-H647 | 1.06 | 1.15 | 1.13 | 1.1 | 0.843 | 0.177 | 0.155 | 0.153 | 0.157 | 0.174 | 0.725 | 0.629 | 0.64 | 0.447 | 0.464 | 1.32 | 1.42 | 1.4 | 1.32 | 1.04
SW 1573 | 0.706 | 0.454 | 0.51 | 0.454 | 0.422 | 0.911 | 0.814 | 0.897 | 0.751 | 0.847 | 0.537 | 0.461 | 0.499 | 0.445 | 0.41 | 1.02 | 0.831 | 0.661 | 0.669 | 0.666
NCI-H1651 | 1 | 1 | 1.09 | 0.997 | 0.921 | 0.709 | 0.487 | 0.61 | 0.617 | 0.622 | 0.201 | 0.226 | 0.208 | 0.206 | 0.197 | 0.86 | 0.98 | 0.805 | 0.933 | 0.84
NCI-H2023 | 0.622 | 0.618 | 0.615 | 0.548 | 0.57 | 0.283 | 0.251 | 0.202 | 0.202 | 0.196 | 0.461 | 0.542 | 0.406 | 0.428 | 0.288 | 0.841 | 0.799 | 0.899 | 0.775 | 0.68
COR-L 105 | 0.928 | 0.977 | 1.04 | 1.14 | 0.916 | 0.983 | 1.16 | 1.14 | 1.17 | 1.14 | 0.698 | 0.743 | 0.898 | 0.784 | 0.913 | 1.07 | 1.05 | 1.07 | 1.12 | 0.833
NCI-H1734 | 0.718 | 0.708 | 0.652 | 0.637 | 0.633 | 0.438 | 0.419 | 0.454 | 0.361 | 0.363 | 0.669 | 0.648 | 0.573 | 0.709 | 0.633 | 0.913 | 0.799 | 0.928 | 0.822 | 0.769
NCI-H3122 | 0.782 | 0.8 | 0.784 | 0.786 | 0.847 | 0.219 | 0.202 | 0.194 | 0.217 | 0.213 | 0.667 | 0.751 | 0.617 | 0.645 | 0.618 | 0.99 | 0.988 | 0.957 | 0.9 | 0.975
CAL-12T | 1.29 | 1.3 | 1.33 | 1.17 | 0.94 | 1.15 | 1.19 | 1.21 | 1.13 | 1.06 | 0.728 | 0.64 | 0.658 | 0.648 | 0.67 | 1.31 | 1.1 | 1.19 | 1.03 | 0.977
HCC-78 | 0.315 | 0.268 | 0.28 | 0.25 | 0.259 | 0.903 | 0.636 | 0.821 | 0.919 | 0.89 | 0.756 | 0.984 | 0.769 | 0.883 | 0.835 | 0.54 | 0.499 | 0.547 | 0.523 | 0.468
NCI-H2085 | 0.892 | 0.924 | 0.873 | 0.855 | 0.824 | 0.832 | 0.808 | 0.753 | 0.751 | 0.74 | 0.691 | 0.709 | 0.693 | 0.676 | 0.694 | 0.963 | 0.692 | 0.804 | 0.862 | 0.94
